This passage reports IC50 results from publication PMC5065612, “A small molecule inhibitor of mutant IDH2 rescues cardiomyopathy in a D-2-hydroxyglutaric aciduria type II mouse model” (Journal of Inherited Metabolic Disease, 2016).

Assay [1] addresses T1, IDH2R140Q (isocitrate dehydrogenase 2) (Homo sapiens, UniProt P48735, R140Q).
T1 construct: gene IDH2; IDH2R140Q homodimer, recombinant purified enzyme
T1 sequence (P48735 40-452 R140Q): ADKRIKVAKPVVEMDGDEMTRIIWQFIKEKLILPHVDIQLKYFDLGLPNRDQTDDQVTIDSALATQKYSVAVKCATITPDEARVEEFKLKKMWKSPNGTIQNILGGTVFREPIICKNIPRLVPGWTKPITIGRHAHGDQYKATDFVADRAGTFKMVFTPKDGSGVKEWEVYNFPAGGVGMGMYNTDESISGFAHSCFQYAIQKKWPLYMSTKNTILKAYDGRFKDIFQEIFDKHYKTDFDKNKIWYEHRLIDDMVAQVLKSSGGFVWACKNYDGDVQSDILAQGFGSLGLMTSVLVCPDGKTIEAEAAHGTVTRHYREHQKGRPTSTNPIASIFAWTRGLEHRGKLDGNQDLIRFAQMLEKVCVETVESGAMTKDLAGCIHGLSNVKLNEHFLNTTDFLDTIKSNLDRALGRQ
Put plainly: NADPH depletion end-point assay (diaphorase/resazurin), […] h preincubation, recombinant enzyme. It counts as biochemical.

Assay [2] has as its target T2, Idh2R140Q (mouse isocitrate dehydrogenase 2) (Mus musculus, UniProt P54071, R140Q).
T2 construct: gene Idh2; Idh2R140Q knock-in mouse embryonic stem cells
T2 sequence (P54071 40-452 R140Q): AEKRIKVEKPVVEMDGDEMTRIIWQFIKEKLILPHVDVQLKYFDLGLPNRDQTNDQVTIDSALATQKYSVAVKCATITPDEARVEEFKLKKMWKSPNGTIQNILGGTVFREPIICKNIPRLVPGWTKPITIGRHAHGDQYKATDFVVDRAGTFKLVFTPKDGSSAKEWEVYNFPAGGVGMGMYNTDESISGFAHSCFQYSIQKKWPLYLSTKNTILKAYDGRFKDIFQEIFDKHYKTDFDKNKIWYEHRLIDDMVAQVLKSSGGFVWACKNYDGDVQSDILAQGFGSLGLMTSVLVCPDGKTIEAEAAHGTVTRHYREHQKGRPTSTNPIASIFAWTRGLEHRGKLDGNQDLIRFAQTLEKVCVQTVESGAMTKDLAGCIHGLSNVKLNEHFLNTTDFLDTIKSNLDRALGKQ
Put plainly: 2HG production in culture medium of knock-in ES cells, LC-MS. The format is cell-based.

Take `CC(C)Nc1nc(Nc2ccnc(C(F)(F)F)c2)nc(-c2cccc(C(F)(F)F)n2)n1` [AGI-026]: the results for the IC50 in assay [1] and in assay [2] were 4 ± 0.2 nM and 5.4 ± 2.8 nM, respectively.
